For assay [1], the system named is E. cloacae 13047. Put plainly: Minimal inhibitory concentration, E. cloacae 13047. The format is cell-based. The note with it: 16 hour minimal inhibitory concentration at 37° C., read-out: MIC (μM) E. cloacae 13047. A digest of the protocol: (§1)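 Saturated overnight cultures in LB (TSA for S. aureus), grown at 37 °C with shaking, were diluted 1:100 twice and exposed to twofold serial dilutions of compound from DMSO stock. After 16 h static incubation at 37 °C, OD600 was read; MIC is the lowest concentration inhibiting growth, reported in µM.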

The subject of assay [2] is S. aureus MW2. Put plainly: Minimal inhibitory concentration, S. aureus MW2. The format is cell-based. As to conditions: 16 hour minimal inhibitory concentration at 37° C., read-out: MIC (μM) S. aureus MW2 (MRSA). A digest of the protocol: as §1
Assay [3] has as its system WT E. coli. Put plainly: Minimal inhibitory concentration in wild-type E. coli. In kind it is cell-based, Escherichia coli. The note with it: wild-type E. coli, 37° C., 16 hours, read-out: MIC (μM) in WT E. coli. How it is done: General Procedure for Determination of Minimal Inhibitory Concentrations
Overnight cultures (5 mL) of bacterial strains were grown in LB media or TSA media (for S. aureus) at 37° C. and with shaking at 220 rpm until saturation. The overnight culture was diluted serially 1:100 (50 μL in 5 mL sterile media) and then 1:100 (250 μL in 25 mL sterile media). The 25 mL of diluted culture was then dispensed to a sterile 96 well plate (Corning #3370). 198 μL of culture were dispensed into row A and 100 μL of this culture were dispensed into rows B-H. Aminocoumarin compound (DMSO stock) were added to the first row and then the row was mixed by pipetting. 100 μL of culture from row A were transferred to row B and the serial dilution continued until the final 100 μL from row H were discarded. The plate was incubated without shaking in a 37° C. for 16 hours and then read by visible light spectrophotometer (Molecular Devices) at 600 nm. The minimal inhibitory concentration (MIC) was determined as the lowest concentration of compound concentration that inhibited the growth of bacteria.

For assay [4], the system named is A. baumannii 19606. Nature of the assay: Minimal inhibitory concentration, A. baumannii 19606. The note with it: 16 hour minimal inhibitory concentration at 37° C., read-out: MIC (μM) A. baumannii 19606. In kind it is cell-based. In a few lines: as §1
Assay [5] concerns S. aureus RN4220. Put plainly: Minimal inhibitory concentration, S. aureus RN4220. In kind it is cell-based. As to conditions: 16 hour minimal inhibitory concentration at 37° C., read-out: MIC (μM) S. aureus RN4220. A digest of the protocol:
as §1

Assay [6] relates to E. coli 25922. Put plainly: Minimal inhibitory concentration, E. coli 25922. In kind it is cell-based. As to conditions: 16 hour minimal inhibitory concentration at 37° C., read-out: MIC (μM) E. coli 25922. In a few lines:
as §1

Assay [7] relates to K. pneumoniae 700721. Put plainly: Minimal inhibitory concentration, K. pneumoniae 700721. In kind it is cell-based. The note with it: 16 hour minimal inhibitory concentration at 37° C., read-out: MIC (μM) K. pneumoniae 700721. In a few lines: as §1
Assay [8] concerns E. coli MC4100. Nature of the assay: Minimal inhibitory concentration, E. coli MC4100. The format is cell-based. The note with it: 16 hour minimal inhibitory concentration at 37° C., read-out: MIC (μM) E. coli MC4100 ara+. In a few lines: as §1
Setting [9] is: Staphylococcus aureus, MRSA, 16 h.
Where [10] appears, read: Acinetobacter baumannii, 19606, 16 h.
[11] abbreviates: Staphylococcus aureus, RN4220, 16 h.

In patent publication US11713335B2, “Aminocoumarin compounds and methods of their use” (President and Fellows of Harvard College, priority 2018, dated 2023) one finds MIC data, which are given here for nine compounds.

Converted amounts (≈) assume the structure as drawn. Read-outs that look alike come from different tables or passages of the source.

As for `COC1C(OC(N)=O)C(O)C(Oc2ccc3c(O)c(NC(=O)C4CCCC(C5CCCCC5)C4)c(=O)oc3c2C)OC1(C)C` (mixture of isomers) [Compound 63], the MIC (as a rule, the lowest concentration found to suppress growth) in assay [1] is listed as over 100 µM; in assay [2], 5 µM; in assay [3], 300 µM; in assay [4], over 50 µM; in assay [5], 10 µM; in assay [6] it was over 200 µM. The MIC in assay [7] is recorded as over 100 µM; in assay [8], over 200 µM.
On to `CO[C@@H]1[C@@H](OC(N)=O)[C@@H](O)[C@H](Oc2ccc3c(O)c(NC(=O)c4cccc(-c5ccccc5)c4)c(=O)oc3c2C)OC1(C)C` [Compound 1], for which the MIC in assay [1] (Enterobacter cloacae, 13047) was over 100 µM; in assay [2] (setting [9]) it was 5 µM (≈ 3.02 µg/mL); in assay [3] (Escherichia coli) it was 26 µM (≈ 15.7 µg/mL); in assay [4] (setting [10]), over 50 µM; in assay [5] (setting [11]), 5 µM (≈ 3.02 µg/mL); in assay [6] (Escherichia coli, 25922, 16 h), 41 µM (≈ 24.8 µg/mL). Moreover, the MIC is over 100 µM in assay [7] (Klebsiella pneumoniae, 700721) and 26 µM (≈ 15.7 µg/mL) in assay [8] (Escherichia coli, MC4100, 16 h).
`CO[C@@H]1[C@@H](OC(N)=O)[C@@H](O)[C@H](Oc2ccc3c(O)c(NC(=O)c4ccc(-c5ccccc5)cc4)c(=O)oc3c2C)OC1(C)C` [Compound 2]: the MIC in assay [1] (Enterobacter cloacae, 13047) is over 100 µM; in assay [2] (setting [9]), 21 µM (≈ 12.7 µg/mL); in assay [3] (Escherichia coli), over 300 µM; in assay [4] (setting [10]), over 50 µM; in assay [5] (setting [11]) it was 21 µM (≈ 12.7 µg/mL); in assay [6] (Escherichia coli, 25922, 16 h), over 200 µM. The MIC in assay [7] (Klebsiella pneumoniae, 700721) is over 100 µM; in assay [8] (Escherichia coli, MC4100, 16 h), over 200 µM.
Turning to `CO[C@@H]1[C@@H](OC(N)=O)[C@@H](O)[C@H](Oc2ccc3c(O)c(NC(=O)Nc4cccc(-c5ccccc5)c4)c(=O)oc3c2C)OC1(C)C` [Compound 3], the MIC in assay [1] (Enterobacter cloacae, 13047) was over 100 µM; in assay [2] (setting [9]), 81 µM (≈ 50.2 µg/mL); in assay [3] (Escherichia coli) it was over 300 µM; in assay [4] (setting [10]) it was over 50 µM; in assay [5] (setting [11]) it was 81 µM (≈ 50.2 µg/mL); in assay [6] (Escherichia coli, 25922, 16 h) it was over 200 µM. Also, the MIC in assay [7] (Klebsiella pneumoniae, 700721) is over 100 µM; in assay [8] (Escherichia coli, MC4100, 16 h), over 200 µM.
In the case of `CO[C@@H]1[C@@H](OC(N)=O)[C@@H](O)[C@H](Oc2ccc3c(O)c(NC(=O)c4ccc5ccccc5c4)c(=O)oc3c2C)OC1(C)C` [Compound 4], the MIC in assay [1] (Enterobacter cloacae, 13047) was over 100 µM; in assay [2] (setting [9]) it was 22 µM (≈ 12.7 µg/mL); in assay [3] (Escherichia coli), over 300 µM; in assay [4] (setting [10]), over 50 µM; in assay [5] (setting [11]), 22 µM (≈ 12.7 µg/mL); in assay [6] (Escherichia coli, 25922, 16 h), over 200 µM. Further, the MIC in assay [7] (Klebsiella pneumoniae, 700721) was over 100 µM; in assay [8] (Escherichia coli, MC4100, 16 h), over 200 µM.
Regarding `CO[C@@H]1[C@@H](OC(N)=O)[C@@H](O)[C@H](Oc2ccc3c(O)c(NC(=O)C(c4ccccc4)c4ccccc4)c(=O)oc3c2C)OC1(C)C` [Compound 5], the MIC is over 100 µM in assay [1] (Enterobacter cloacae, 13047); 80 µM (≈ 49.5 µg/mL) in assay [2] (setting [9]); over 300 µM in assay [3] (Escherichia coli); over 50 µM in assay [4] (setting [10]); over 100 µM in assay [5] (setting [11]); over 200 µM in assay [6] (Escherichia coli, 25922, 16 h). Moreover, the MIC was over 100 µM in assay [7] (Klebsiella pneumoniae, 700721) and over 200 µM in assay [8] (Escherichia coli, MC4100, 16 h).
With `CO[C@@H]1[C@@H](OC(N)=O)[C@@H](O)[C@H](Oc2ccc3c(O)c(NC(=O)c4cc5ccccc5o4)c(=O)oc3c2C)OC1(C)C` [Compound 6], the MIC in assay [1] (Enterobacter cloacae, 13047) was over 100 µM; in assay [2] (setting [9]), 88 µM (≈ 50 µg/mL); in assay [3] (Escherichia coli), over 300 µM; in assay [4] (setting [10]) it was over 50 µM; in assay [5] (setting [11]), 88 µM (≈ 50 µg/mL); in assay [6] (Escherichia coli, 25922, 16 h), over 200 µM. Also, the minimal inhibitory concentration (MIC) was over 100 µM in assay [7] (Klebsiella pneumoniae, 700721) and over 200 µM in assay [8] (Escherichia coli, MC4100, 16 h).
For the compound `COc1ccc(C(=O)Nc2c(O)c3ccc(O[C@@H]4OC(C)(C)[C@H](OC)[C@@H](OC(N)=O)[C@H]4O)c(C)c3oc2=O)cc1` [Compound 7], the MIC was over 100 µM in assay [1] (Enterobacter cloacae, 13047); 45 µM (≈ 25.1 µg/mL) in assay [2] (setting [9]); over 300 µM in assay [3] (Escherichia coli); over 50 µM in assay [4] (setting [10]); 45 µM (≈ 25.1 µg/mL) in assay [5] (setting [11]); over 200 µM in assay [6] (Escherichia coli, 25922, 16 h). Moreover, the MIC in assay [7] (Klebsiella pneumoniae, 700721) is over 100 µM; in assay [8] (Escherichia coli, MC4100, 16 h), over 200 µM.
In the case of `CO[C@@H]1[C@@H](OC(N)=O)[C@@H](O)[C@H](Oc2ccc3c(O)c(NC(=O)c4ccc(C)o4)c(=O)oc3c2C)OC1(C)C` [Compound 12], the MIC in assay [3] is over 300 µM.
